Where two headings read alike, the source gives them in different places.
Columns and labels:
RAW 264.7 cells = assay: LPS-induced NO production of macrophages (Griess); type: cell-based, mice; conditions: 16 hrs, LPS alone 40, non-treated 2
Procedure: A macrophage cell line derived from mice, RAW 264.7 (KCLB 40071), was purchased from the Korean Cell Line Bank. RAW 264.7 cells were seeded in a density of 3×10^6 cells onto 60-mm culture dishes containing DMEM (Dulbecco's Modified Eagle Medium, 12800-017, Gibco) supplemented with 10% FBS (fetal bovine serum, 26140-079, Gibco), 100 U/ml of penicillin and 100 μg/ml streptomycin (15140-122, Gibco), and cultured at 37° C. under 5% CO2 and humidity for 24 hrs. To induce NO production, RAW 264.7 cells were treated with 500 ng/ml of an E. coli cell wall component, lipopolysaccharide (LPS, […], Sigma). […] Herein, LPS was dissolved in distilled water, and apigenin was dissolved in DMSO. Then, the culture medium and a Griess reagent were mixed at a ratio of 1:1 (100 μl: 100 μl) and allowed to stand at room temperature for 10 min. Thereafter, absorbance was measured at 540 nm using a spectrophotometer (Power Wave X340, Bio-Tek).

[1] = test system: chondrocytes isolated from the cartilage of New Zealand white rabbits; assay: cells; type: cell-based; conditions: Oryctolagus cuniculus, Chondrocyte, read-out: IC50 values for apigenin on chondrocytes
Procedure: During culturing, on Days 1, 2, 4 and 6, IC50 values were measured by a MTT assay based on cell viability.

COX-2 = assay: Western blotting of COX-2 expression in LPS-treated RAW 264.7; type: cell-based, mice; conditions: LPS treatment = 100%, upon apigenin treatment
Procedure: A macrophage cell line derived from mice, RAW 264.7 (KCLB 40071), was purchased from the Korean Cell Line Bank. RAW 264.7 cells were seeded in a density of 3×10^6 cells onto 60-mm culture dishes containing DMEM (Dulbecco's Modified Eagle Medium, 12800-017, Gibco) supplemented with 10% FBS (fetal bovine serum, 26140-079, Gibco), 100 U/ml of penicillin and 100 μg/ml streptomycin (15140-122, Gibco), and cultured at 37° C. under 5% CO2 and humidity for 24 hrs. To induce NO production, RAW 264.7 cells were treated with 500 ng/ml of an E. coli cell wall component, lipopolysaccharide (LPS, L2654, Sigma). […] Herein, LPS was dissolved in distilled water, and apigenin was dissolved in DMSO. Then, the culture medium and a Griess reagent were mixed at a ratio of 1:1 (100 μl: 100 μl) and allowed to stand at room temperature for 10 min. Thereafter, absorbance was measured at 540 nm using a spectrophotometer (Power Wave X340, Bio-Tek).
RAW 264.7 cells were treated under the same conditions as in Example 12. […] Herein, for IκBα expression, the cells were treated with LSP for only two hours. […] After protein concentrations in cell lysates were measured, […] protein samples were separated on an 8-16% SDS (sodium dodecyl sulfate) polyacrylamide gel (EC60452, NOVEX). […]

[2] = test system: osteoarthritis-induced New Zealand white rabbits; assay: Proteoglycan levels in joint synovial fluids (1,9-dimethylmethylene blue assay); type: in vivo
Source text: (§1) To prepare an osteoarthritis animal model, New Zealand white rabbits underwent anterior cruciate ligament transection (ACLT) in joints of their two hind legs. After three days, the rabbits were forced to sustain movement for four weeks in a space of 5×5 m^3 to induce substantial osteoarthritis. […] The following Examples 3 to 10 were all performed using joints of the osteoarthritis-induced New Zealand white rabbits prepared as in this Example 2.
In the joint synovial fluids prepared in Example 3, proteoglycan levels were measured using a 1,9-dimethylmethylene blue assay (Houselmann H. J. et al., Am. J. Physiol. 271:C742-752, (1996)). A synovial fluid sample of 50 μl was mixed with 250 μl of 1,9-dimethylmethylene blue (34,108-8, Aldrich), and absorbance was measured at 530 nm using a spectrophotometer (Power Wave X340, Bio-Tek).

[3] = test system: osteoarthritis-induced New Zealand white rabbits; assay: Collagen levels in joint synovial fluids (Sirius Red staining); type: in vivo
Source text: as §1
Total collagen levels in synovial fluids were measured by Sirius Red staining (Heide T. R. et al., Histochem. […]. Then, total collagen levels were determined by measuring absorbance at 550 nm. A standard curve was obtained by measuring absorbance at 550 nm for collagen type I (C1188, Sigma) of various concentrations of 0, 100, 200, 300, 400 and 500 μg. Using the standard curve, collagen levels in synovial fluids were determined.

[4] = apigenin-treated right leg (+), four weeks after drug injection
[5] = apigenin-treated right leg (+), four weeks after drug injection, listed as Apigenin
[6] = apigenin-treated right leg (+), two weeks after drug injection
[7] = non-treated left leg (−) of apigenin treatment group, four weeks after drug injection
[8] = non-treated left leg (−) of apigenin treatment group, two weeks after drug injection

SMILES: O=c1cc(-c2ccc(O)cc2)oc2cc(O)cc(O)c12 [apigenin, 4′,5,7-trihydroxyflavone]
- Nitrite (RAW 264.7 cells; LPS 500 ng/ml + apigenin 10 μM): 32.2 µM
- Nitrite (RAW 264.7 cells; LPS 500 ng/ml + apigenin 20 μM): 22.2 µM
- Nitrite (RAW 264.7 cells; LPS 500 ng/ml + apigenin 40 μM): 10.1 µM
- Nitrite (RAW 264.7 cells; LPS 500 ng/ml + apigenin 80 μM): 9 µM
- IC50 ([1]; 24 h): ~200 µM
- IC50 ([1]; 48 h): ~100 µM
- IC50 ([1]; 96 h): ~40 µM
- IC50 ([1]; 144 h): ~30 µM
- COX-2 expression level (COX-2): 0%
- Proteoglycan levels in joint synovial fluids [2, 4]: about 12.22 μg/ml
- Proteoglycan levels in joint synovial fluids [2, 5]: 12.22 ± 0.4 µg/mL
- Proteoglycan levels in joint synovial fluids [2, 6]: 10.32 ± 0.66 µg/mL
- Proteoglycan levels in joint synovial fluids [2, 7]: 34.09 ± 0.24 µg/mL
- Proteoglycan levels in joint synovial fluids [2, 8]: 22.90 ± 0.86 µg/mL
- Collagen levels in joint synovial fluids [3, 4]: 406.56 µg/mL
- Collagen levels in joint synovial fluids [3, 5]: 406.6 ± 0.63 µg/mL
- Collagen levels in joint synovial fluids [3, 6]: 397.4 ± 0.69 µg/mL
- Collagen levels in joint synovial fluids [3, 7]: about 1019.2 μg/ml
- Collagen levels in joint synovial fluids ([3]; non-treated left leg (−) of apigenin treatment group, four weeks after drug injection, listed as Apigenin): 1019.2 ± 0.79 µg/mL
- Collagen levels in joint synovial fluids [3, 8]: 749.4 ± 0.46 µg/mL
